Test results from US20160089464A1, “MALODOR REDUCTION COMPOSITIONS” (The Procter & Gamble Company, priority 2014, published 2016).

Assay: Comment Code material properties: vapor pressure, ClogP, probability of ingredient color instability, odor detection threshold, melamine formaldehyde PMC headspace response ratio and leakage, liquid dish neat product liquid-air partition coefficient
Format: physicochemical
Details: Table 1 materials; each letter of the code is one property class (vapor pressure, ClogP, color instability, odor detection threshold, PMC headspace ratio, PMC leakage, liquid dish liquid-air partition coefficient)

Structure (SMILES)	Comment Code
O=C1CCCCCCCCCCOCCCCO1 [Material 562]	DGJ
CC(=O)c1cc(C(C)(C)C)cc2c1CCC2(C)C [Material 563]	DEFHJK
COC1(C)CCC23CC1C(C)(C)C2CCC3C (centres unmarked) [Material 565]	ADEFHJK
CC1CCC2C(C)(C)C3CC12CCC3(C)OC=O (centres unmarked) [Material 566]	BDEFHJK
CC(=O)O[C@]1(C)CC[C@@]23C[C@@H]1C(C)(C)[C@@H]2CC[C@H]3C [Material 567]	DEFHJK
CC1=CCCC2(C)OC2CCC(C)=CCC1 (centres unmarked) [Material 568]	DFHJK
C[C@@H]1CC[C@H]2C(C)(C)[C@H]3C[C@@]12CC[C@@]3(C)O [Material 569]	DEFHJK
CC1=CCC(C23CCCC(C)(C2)OC3)C1(C)C (centres unmarked) [Material 570]	DEFHJK
CC1=CCC(C23CCCC(C)(C2)OC3)C1(C)C (centres unmarked) [Material 571]	DFHJ
CC1C(C)(C)C2=C(C(=O)CCC2)C1(C)C (centres unmarked) [Material 572]	BDEFHIJK
CC(=O)OC12CCCC(C)(CCC3C1CC3(C)C)C2 (centres unmarked) [Material 573]	DEFHJK
CC12CCCC(O)(C1)C1CC(C)(C)C1CC2 (centres unmarked) [Material 574]	DEFHJK
C=C(C)C1CC=C(C)C(OC(C)=O)C1 (centres unmarked) [Material 577]	BDHIJK
CCCCCCCC#N [Material 578]	ACEFGIKL
CCCCCCCCO [Material 580]	ACEFGIKL
CCCCCCCCCC(=O)O [Material 582]	DEFHJK
CCCCCCCCCC=O [Material 584]	ADHKL
COc1ccc(CC(C)C=O)cc1 (centres unmarked) [Material 586]	BCHJK
CC12CCC(C(=O)C1=O)C2(C)C (centres unmarked) [Material 587]	ACEFGIJK
C=C1C2CCC(C2)C1(C)C (centres unmarked) [Material 589]	ADEFGIJKL
CCCCCC1CC(=O)C=C(C)C1C(=O)OCC (centres unmarked) [Material 591]	DHJ
CCCCCCCCCCCCCCCCCC(=O)OCCCC [Material 594]	DEFHJ
CCCCOC(=O)C(C)OC(=O)CCC (centres unmarked) [Material 595]	CEFGJK
C=CCCCCCCCCC(=O)OCCCC [Material 599]	DEFHJK
CC1=CCC(CCC(C)CO)C1(C)C (centres unmarked) [Material 600]	DEFHJK

Structure (SMILES)	Comment Code
CC(C)(C)c1ccc(CCC=O)cc1 [Material 601]	BDHJK
CC(C)C(=O)OC1CC2CCC1(C)C2(C)C (centres unmarked) [Material 603]	BDEFHIJK
CC(=O)OC1CC2CCC1(C)C2(C)C (centres unmarked) [Material 604]	ADEFHIJKL
C=C1C2CCC(C)(OCC)C1CCC2(C)C (centres unmarked) [Material 606]	BDEFHJK
CCOCOC1CCCCCCCCCCC1 [Material 607]	DEFHJK
CC(C)=CCCC(C)=C1CC=C(C)CC1 [Material 608]	DEFHJK
CC1=CC(=O)CC(C)C12CCC(=C(C)C)C2 (centres unmarked) [Material 610]	DHJK
C=C(C)C1CCC(C)(OC(C)=O)CC1 (centres unmarked) [Material 611]	BDHJK
C=C(C)C1CCC(C)(O)CC1 (centres unmarked) [Material 612]	BCGIJK
C=CC(=C)CCC=C(C)CCC=C(C)C=O [Material 613]	DHJK
C=C1C=CC(C(C)CCC=C(C)C)CC1 (centres unmarked) [Material 614]	DEFHJK
C=C(C)C1CCC2(C)CCCC(=C)C2C1 (centres unmarked) [Material 615]	BDEFGJK
C=C1C2CCC(C2)C1(C)CCC=C(C)CO (centres unmarked) [Material 616]	DEFHJK
CC1CCC2=C1CC1CCC2(C)C1(C)C (centres unmarked) [Material 621]	BDEFGJKL
CC1=CC2C(=C(C)CCCC2(C)C)CC1 (centres unmarked) [Material 625]	DEFHJKL
CC(C)=C1CCC(C)C2=C(C1)C(C)CC2 (centres unmarked) [Material 626]	DEFHJKL
COC(Cc1ccccc1)OC [Material 627]	DHJK
C=CC(=C)CCC=C(C)CCC=C(C)C [Material 628]	DEFHJK
C=C1CCC2C3C(C(C)C)CCC2(C)C13 (centres unmarked) [Material 631]	BDEFHJKL
C=C1CCC23CC1C(C)(C)C2CCC3C (centres unmarked) [Material 632]	BDEFGJKL
C=C1CCC=C(C)CCC2C1CC2(C)C (centres unmarked) [Material 633]	DEFHJKL
CC(=O)C=CC12OC1(C)CCCC2(C)C (centres unmarked) [Material 636]	BDEFHIJK
COc1c2ccoc2cc2oc(=O)ccc12 [Material 638]	CGJ
CC(C)(O)CCc1ccccc1 [Material 639]	CEFGJK
CCCCCCCCCCCC(=O)OCc1ccccc1 [Material 644]	DEFHJ

Structure (SMILES)	Comment Code
CC(C)(O)Cc1ccccc1 [Material 649]	BCEFGIK
O=C(/C=C/c1ccccc1)OCc1ccccc1 [Material 650]	DHJ
O=C(OCc1ccccc1)c1ccccc1 [Material 653]	DHJ
CC(C)CCc1ccc2c(c1)OCC(=O)CO2 [Material 658]	DHJ
CC(C)C1OCCC2(CC3CCC2(C)C3(C)C)O1 (centres unmarked) [Material 659]	DEFHJK
CC(C)=CCCC1=CCC(C#N)CC1 (centres unmarked) [Material 660]	DEFHJK
COC(=O)c1ccccc1N=CCC(C)CCCC(C)(C)O (centres unmarked) [Material 661]	DEFHJ
C=CC/C=C/CCC(=O)OC [Material 668]	ACEFHKL
CCCCCOC(=O)C=Cc1ccccc1 [Material 671]	DEFHJK
C[C@@H]1CC[C@H]2C(C)(C)[C@H]3C[C@@]12CC1OC(C)(C)OC13C (some centres unmarked) [Material 674]	DEFHJK
CC1(O)CCC2=C(CCCC2(C)C)C1 (centres unmarked) [Material 675]	DEFHJK
CC1(O)CCC2=C(CCCC2(C)C)C1 (centres unmarked) [Material 676]	DEFHJK
CCC(O)COC1CCCCC1C(C)(C)C (centres unmarked) [Material 677]	DEFHJK
CC1(C)CCC[C@@]2(C)[C@H]1CC[C@]13CO[C@](C)(CC[C@@H]12)O3 [Material 678]	DEFHJ
CC1C(C)(C)C2CCC3CC(C)(C)OC3C2C1(C)C (centres unmarked) [Material 679]	ADEFHJK
CC1C(C)(C)C2CCC3CC(C)(C)OC3C2C1(C)C (centres unmarked) [Material 680]	ADEFHJK
CC(C)[C@@]12CC(=O)[C@H](C)[C@@H]1C2 [Material 683]	ADEFGIJKL
CC(C)=C1CCC2=CC(=O)CC(C)C2(C)C1 (centres unmarked) [Material 684]	DHJK
CCC(=O)OC(C)(C)C1CC=C(C)CC1 (centres unmarked) [Material 686]	BDEFHJK
C=CC(C)=CCC=C(C)CCC=C(C)C=O [Material 691]	DHJK
C=C(C)C1CCC2(C)CCC=C(C)C2C1 (centres unmarked) [Material 692]	BDEFHJK
CC(C)=CCCC1(C)C2CC3C(C2)C31C (centres unmarked) [Material 693]	ADEFHJKL
CC(=CCCC1(C)C2CC3C(C2)C31C)CO (centres unmarked) [Material 694]	DEFHJK
C=CCCC(=O)C1=CCCC(C)(C)C1 [Material 697]	BDHJK
CC1=CC2C(CC1)C(C)=CCC2C(C)C (centres unmarked) [Material 698]	DEFHJKL

Same assay, conditions: cell strings several class symbols together; each letter is one property class of L1

Structure (SMILES)	Comment Code
CC/C=C\CCOC(=O)CC [Material 538]	ACEFHIKL
CC/C=C\CCOC(=O)CCC [Material 540]	ADEFHJKL
CC/C=C\CCO [Material 542]	ACEFHIKL
CCC/C=C\CO [Material 547]	ACEFHIKL
N#CC=Cc1ccccc1 [Material 549]	ACEFGIK
O=C/C=C/c1ccccc1 [Material 554]	ACHIK
N#C/C=C/c1ccccc1 [Material 556]	ACEFGIK
Cc1cc(O)cc(C)c1Cl [Material 557]	BCHIJK
COC1(C)CCC23CC1C(C)(C)C2CCC3C (centres unmarked) [Material 565]	BDEFHJK
CC1CCC2C(C)(C)C3CC12CCC3(C)OC=O (centres unmarked) [Material 566]	BDEFHJK
CC(=O)O[C@]1(C)CC[C@@]23C[C@@H]1C(C)(C)[C@@H]2CC[C@H]3C [Material 567]	DEFHJK
C[C@@H]1CC[C@H]2C(C)(C)[C@H]3C[C@@]12CC[C@@]3(C)O [Material 569]	DEFHJK
CC1=CCC(C23CCCC(C)(C2)OC3)C1(C)C (centres unmarked) [Material 570]	DEFHJK
CC(=O)OC12CCCC(C)(CCC3C1CC3(C)C)C2 (centres unmarked) [Material 573]	DEFHJK
CC12CCCC(O)(C1)C1CC(C)(C)C1CC2 (centres unmarked) [Material 574]	DEFHJK
Cc1ccc(C(C)C)cc1O [Material 575]	DHIJK
C=C(C)C1CC=C(C)C(=O)C1 (centres unmarked) [Material 576]	ACGIJKL
CCOCCOCCO [Material 579]	BCEFGIK
CCCCCC(=O)O [Material 583]	ACEFGIKL
CC1=CCC(CC#N)C1(C)C (centres unmarked) [Material 585]	ACGIJKL
CC12CCC(CC1=O)C2(C)C (centres unmarked) [Material 588]	ACEFGIJKL
CC1=C(C/C=C(\C)C=O)C(C)(C)CCC1 [Material 602]	DHJK
C=C1C2CCC(C2)C1(C)CCC=C(C)CO (centres unmarked) [Material 616]	DEFHJK
CC1(C)C2CCC3(CO3)C1C2 (centres unmarked) [Material 617]	ACEFGIJKL

Structure (SMILES)	Comment Code
C=C1C=CC(C(C)C)CC1 (centres unmarked) [Material 619]	ADEFGIJKL
CC1CCC2=C1CC1CCC2(C)C1(C)C (centres unmarked) [Material 621]	BDEFGJKL
COC(Cc1ccccc1)OC [Material 627]	DHJK
C=C1CCC2C3C(C(C)C)CCC2(C)C13 (centres unmarked) [Material 631]	BDEFHJKL
C=C1CCC23CC1C(C)(C)C2CCC3C (centres unmarked) [Material 632]	BDEFGJKL
CC(=O)CCc1ccccc1 [Material 640]	ACEFGIK
O=C(OCc1ccccc1)c1ccccc1O [Material 641]	DFGJ
CC(C)CC(=O)OCc1ccccc1 [Material 645]	BDEFHJK
CC(C)C(=O)OCc1ccccc1 [Material 647]	BCHJK
OCc1ccccc1 [Material 652]	ACEFGIKL
CC(C)C1OCCC2(CC3CCC2(C)C3(C)C)O1 (centres unmarked) [Material 659]	BDEFHJK
CC(OC=O)C1CCCC(C)(C)C1 (centres unmarked) [Material 662]	ADEFHIJKL
COc1ccc(COC(C)=O)cc1 [Material 664]	BCEFGK
COc1ccc(COC=O)cc1 [Material 665]	BCEFGK
CCCCCOC(=O)c1ccccc1 [Material 672]	DEFHJK
C[C@@H]1CC[C@H]2C(C)(C)[C@H]3C[C@@]12CC1OC(C)(C)OC13C (some centres unmarked) [Material 674]	DEFHJK
CC1(C)CCC[C@@]2(C)[C@H]1CC[C@]13CO[C@](C)(CC[C@@H]12)O3 [Material 678]	DEFHJ
CC1C(C)(C)C2CCC3CC(C)(C)OC3C2C1(C)C (centres unmarked) [Material 679]	DEFHJK
CC1C(C)(C)C2CCC3CC(C)(C)OC3C2C1(C)C (centres unmarked) [Material 680]	ADEFHJK
CC(C)=C1CCC2=CC(=O)CC(C)C2(C)C1 (centres unmarked) [Material 684]	DHJK
CC(=O)OC(C)(C)C1CC=C(C)CC1 (centres unmarked) [Material 687]	BDHJK
CC(=CCCC1(C)C2CC3C(C2)C31C)CO (centres unmarked) [Material 694]	DEFHJK
CC(O)CCC1CCCCC1 (centres unmarked) [Material 699]	BDEFHIK
